Test results as given in PubChem BioAssay AID248 (DTP/NCI, 2004).
Values joined by “and” are separate entries in the source; they are usually repeats but may differ in a detail not shown here. Equal entries are not always repeated. Inconclusive results and toxic doses are left out. Rule as the data show it: active = T/C of 150% or more; inactive = T/C below 125%.

Test system: L1210 leukemia ip in BDF1 mice, survival T/C
Test: NCI In Vivo Anticancer Drug Screen. Data for tumor model L1210 Leukemia (intraperitoneal) in B6D2F1 (BDF1) mice
Settings: endpoint: mean survival time, higher = longer survival
In short: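 Transplantable tumor model; survival measured in treated vs vehicle control mice. Value = treated/control.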

[1] = dose: 50.0 mg/kg/injection, schedule: Q01DX009 (ip), vehicle: Klucel (hydroxypropylcellulose) (HPC)
[2] = dose: 100.0 mg/kg/injection, schedule: Q01DX009 (ip), vehicle: Klucel (hydroxypropylcellulose) (HPC)
[3] = dose: 200.0 mg/kg/injection, schedule: Q01DX009 (ip), vehicle: Klucel (hydroxypropylcellulose) (HPC)
[4] = dose: 100.0 mg/kg/injection, schedule: Q04DX002 (ip), vehicle: Klucel (hydroxypropylcellulose) (HPC)
[5] = dose: 200.0 mg/kg/injection, schedule: Q04DX002 (ip), vehicle: Klucel (hydroxypropylcellulose) (HPC)
[6] = dose: 400.0 mg/kg/injection, schedule: Q04DX002 (ip), vehicle: Klucel (hydroxypropylcellulose) (HPC)
[7] = dose: 100.0 mg/kg/injection, schedule: Q01DX001 (ip), vehicle: saline
[8] = dose: 200.0 mg/kg/injection, schedule: Q01DX001 (ip), vehicle: saline
[9] = dose: 400.0 mg/kg/injection, schedule: Q01DX001 (ip), vehicle: saline
[10] = dose: 100.0 mg/kg/injection, schedule: Q01DX009 (ip), vehicle: saline
[11] = dose: 100.0 mg/kg/injection, schedule: Q04DX003 (ip), vehicle: saline
[12] = dose: 200.0 mg/kg/injection, schedule: Q01DX009 (ip), vehicle: saline
[13] = dose: 200.0 mg/kg/injection, schedule: Q04DX003 (ip), vehicle: saline
[14] = dose: 400.0 mg/kg/injection, schedule: Q01DX009 (ip), vehicle: saline
[15] = dose: 400.0 mg/kg/injection, schedule: Q04DX003 (ip), vehicle: saline

Measured: T/C

C=COCCCCCC(C)C
inactive: [1] 96 % of control | [2] 106 % of control | dose: 100.0 mg/kg/injection, schedule: Q04DX003 (ip), vehicle: Klucel (hydroxypropylcellulose) (HPC) 107 % of control | [3] 91 % of control | dose: 200.0 mg/kg/injection, schedule: Q04DX003 (ip), vehicle: Klucel (hydroxypropylcellulose) (HPC) 105 % of control | dose: 400.0 mg/kg/injection, schedule: Q04DX003 (ip), vehicle: Klucel (hydroxypropylcellulose) (HPC) 104 % of control

COc1cccc(NC(=S)NC(Cc2ccccc2)c2ccccc2)c1 (stereo unspecified)
inactive: [4] 94 % of control | [5] 101 % of control | [6] 97 % of control

CC(=O)Oc1ccccc1[N+](=O)[O-]
inactive: [2] 106 % of control | [3] 91 % of control

Cc1cc(SCc2ccccc2)cc(C)[o+]1
inactive: [7] 98 % of control | [8] 98 % of control | [9] 107 % of control

CCC1(C2=CCCCC2)C(=O)NC(=S)NC1=O
inactive: dose: 75.0 mg/kg/injection, schedule: Q01DX001 (ip), vehicle: saline 102 % of control | dose: 150.0 mg/kg/injection, schedule: Q01DX001 (ip), vehicle: saline 106 % of control | dose: 300.0 mg/kg/injection, schedule: Q01DX001 (ip), vehicle: saline 104 % of control

CCOC(=O)C(C)(N)CCOCc1ccccc1 (stereo unspecified)
inactive: dose: 50.0 mg/kg/injection, schedule: Q01DX001 (ip), vehicle: carboxymethylcellulose (CMC) 100 % of control | dose: 100.0 mg/kg/injection, schedule: Q01DX001 (ip), vehicle: carboxymethylcellulose (CMC) 102 % of control | dose: 200.0 mg/kg/injection, schedule: Q01DX001 (ip), vehicle: carboxymethylcellulose (CMC) 100 % of control | dose: 400.0 mg/kg/injection, schedule: Q01DX001 (ip), vehicle: carboxymethylcellulose (CMC) 104 % of control

Cc1ccc(C2(O)CCN(CCCC(=O)c3ccc(F)cc3)CC2)cc1
inactive: dose: 3.12 mg/kg/injection, schedule: Q01DX009 (ip), vehicle: Klucel (hydroxypropylcellulose) (HPC) 101 % of control | dose: 6.25 mg/kg/injection, schedule: Q01DX009 (ip), vehicle: Klucel (hydroxypropylcellulose) (HPC) 104 % of control | dose: 12.5 mg/kg/injection, schedule: Q01DX009 (ip), vehicle: Klucel (hydroxypropylcellulose) (HPC) 101 % of control | dose: 25.0 mg/kg/injection, schedule: Q01DX009 (ip), vehicle: Klucel (hydroxypropylcellulose) (HPC) 113 % of control | [1] 104 % of control

NC(N)=NCCCC(=O)O
inactive: [10] 92 % of control | [11] 110 % of control | [12] 94 % of control | [13] 108 % of control | [14] 92 % of control | [15] 103 % of control

O=S(=O)(NC1C2CC3C1N3N2)c1ccccc1 (stereo unspecified)
inactive: dose: 50.0 mg/kg/injection, schedule: Q04DX003 (ip), vehicle: saline 90 % of control | [11] 114 % of control | [13] 98 % of control

C=C(NC(=O)CNC(=O)CN)C(=O)O
inactive: dose: 100.0 mg/kg/injection, schedule: Q04DX002 (ip), vehicle: saline with Tween-80 105 % of control | dose: 200.0 mg/kg/injection, schedule: Q04DX002 (ip), vehicle: saline with Tween-80 102 % of control | dose: 400.0 mg/kg/injection, schedule: Q04DX002 (ip), vehicle: saline with Tween-80 102 % of control

O=S(=O)(O)C(O)c1ccc(C(O)S(=O)(=O)O)cc1 (stereo unspecified)
inactive: [7] 107 % of control | [11] 92 % of control | [8] 107 % of control | [13] 102 % of control | [9] 105 % of control | [15] 95 % of control

Cc1ccc(S(=O)(=O)Oc2ccccc2NS(=O)(=O)c2ccccc2)cc1
inactive: [7] 101 % of control | dose: 100.0 mg/kg/injection, schedule: Q04DX003 (ip), vehicle: acetone 96 % of control | [8] 95 % of control | dose: 200.0 mg/kg/injection, schedule: Q04DX003 (ip), vehicle: acetone 92 % of control | [9] 95 % of control | dose: 400.0 mg/kg/injection, schedule: Q04DX003 (ip), vehicle: acetone 87 % of control

O=C(O)C1C2CC3CC(C2)CC1C3 (stereo unspecified)
inactive: [4] 105 % of control | [5] 94 % of control and 110 % of control | [6] 113 % of control | dose: 600.0 mg/kg/injection, schedule: Q04DX002 (ip), vehicle: Klucel (hydroxypropylcellulose) (HPC) 94 % of control

O=C(CC(O)C(Cl)(Cl)Cl)CC(O)C(Cl)(Cl)Cl (stereo unspecified)
inactive: dose: 100.0 mg/kg/injection, schedule: Q04DX002 (ip), vehicle: saline 96 % of control | dose: 200.0 mg/kg/injection, schedule: Q04DX002 (ip), vehicle: saline 107 % of control

c1ccc2c(c1)CNNC2
inactive: dose: 25.0 mg/kg/injection, schedule: Q01DX009 (ip), vehicle: saline 97 % of control | dose: 50.0 mg/kg/injection, schedule: Q01DX009 (ip), vehicle: saline 96 % of control | [10] 102 % of control | [12] 103 % of control | [14] 105 % of control

O=C1CCCc2ccc(Cl)cc21
inactive: [10] 96 % of control | [12] 97 % of control | [14] 94 % of control

C/C(=N\Sc1ccccc1)c1ccccc1O
inactive: dose: 100.0 mg/kg/injection, schedule: Q04DX002 (ip), vehicle: other 102 % of control | dose: 200.0 mg/kg/injection, schedule: Q04DX002 (ip), vehicle: other 88 % of control
